Reference: US20160137610A1, “Compounds that Modulate EGFR Activity and Methods for Treating or Preventing Conditions Therewith” (Gatekeeper Pharmaceuticals, Inc., priority 2010, published 2016)

Columns and labels:
Format in all cases: cell-based
[1] = biological target: Ba/F3 cells EGFR Del 19/T790M (Homo sapiens, UniProt P00533, DEL746-750/T790M, cells depend on it); experiment: Cell proliferation/growth MTS assay in EGFR mutant Ba/F3 cells; settings: 72 hours, read-out: IC50 (nM) in Ba/F3 Cells, EGFR Del 19/T790M
From the text: (§1) The EGFR and iERBB2 mutant Ba/F3 cells and the NIH-3T3 cells have been previously characterized (Engelman, J. A. et al. Cancer Res 67, 11924-32 (2007); Yuza, Y. et al. Cancer Biol Ther 6 (2007)). The EGFR C797S and the ERBB2 T798I mutations are introduced using site directed mutagenesis using the Quick Change Site-Directed Mutagenesis kit (Stratagene; La Jolla, Calif.) according to the manufacturer's instructions (Mukohara, T. et al. J Natl Cancer Inst 97, 1185-94 (2005)). The oligonucleotide sequences are available upon request. All constructs are confirmed by DNA sequencing. The constructs are shuttled into the retroviral vector JP1540 using the BD Creator™ System (BD Biosciences). Ba/F3 of NIH-3T3 cells are infected with retrovirus according to standard protocols, as described previously (Engelman, J. A. et al. Proc Natl Acad Sci USA 102, 3788-93 (2005); Zhao, J. J. et al. Cancer Cell 3, 483-95 (2003)). Stable populations are obtained by selection in puromycin (2 μg/ml).
(§2) Growth and inhibition of growth is assessed by MTS assay. This assay, a colorimetric method for determining the number of viable cells, is based on the bioreduction of 3-(4,5-dimethylthiazol-2-yl)-5-(3-carboxymethoxyphenyl)-2-(4-sulfophenyl)-2H-tetrazolium (MTS) by cells to a formazan product that is soluble in cell culture medium, can be detected spectrophotometrically and was performed according to previously established methods (Mukohara, T. et al. J Natl Cancer Inst 97, 1185-94 (2005); Paez, J. G. et al. Science 304, 1497 500 (2004); Engelman, J. A. et al. J Clin Invest 116, 2695-2706 (2006). NSCLC or Ba/F3 cells are exposed to treatment for 72 hours and the number of cells used per experiment determined empirically and has been previously established. All experimental points are set up in six to twelve wells and all experiments are repeated at least three times. […] The curves are fitted using a non-linear regression model with a sigmoidal dose response.
(§3) Activity of various compounds of the invention was determined in vitro in EGFR mutant Ba/F3 cells according to the procedures set forth in Example 1.

Ba/F3 cells EGFR vIII = Ba/F3 cells EGFR vIII (Homo sapiens, UniProt P00533, DELINS30-297G, cells depend on it); experiment: as above; settings: 72 hours, read-out: IC50 (nM) in Ba/F3 Cells, EGFR vIII
From the text: as §1, §2, §3

[2] = biological target: Ba/F3 cells EGFR L858R/T790M (Homo sapiens, UniProt P00533, T790M/L858R, cells depend on it); experiment: as above; settings: 72 hours, read-out: IC50 (nM) in Ba/F3 Cells, EGFR L858R/T790M
From the text: as §1, §2, §3

A549 (KRAS G12) = experiment: Cell proliferation/growth MTS assay in NSCLC cell lines; settings: Homo sapiens, 72 hours
[3] = tested on: PC9 GR (EGFR Del 19/T790M); experiment: as above; settings: 72 hours
From the text: (§4) The EGFR mutant NSCLC cell lines HCC827 (del E746_A750), H3255 (L858R), HCC827 GR (del E746_A750/MET amplified), H1975 (L858R/T790M) and PC9 (del E746_A750) have been previously characterized (Amann., J. et al. Cancer Res 65, 226-35 (2005); Engelman, J. A. et al. Science 316, 1039-43 (2007); Ono, M. et al. Mol Cancer Ther 3, 465-72 (2004); Ogino, A. et al. Cancer Res 67, 7807-14 (2007)). The PC9 GR (del E746_A750/T790M) cells are generated and verified to contain del E746_A750 in cis with T790M. The ERBB2 amplified (Calu-3 and H1819) and mutant (H1781) are obtained from ATCC. […]
(§5) Growth and inhibition of growth is assessed by MTS assay. This assay, a colorimetric method for determining the number of viable cells, is based on the bioreduction of 3-(4,5-dimethylthiazol-2-yl)-5-(3-carboxymethoxyphenyl)-2-(4-sulfophenyl)-2H-tetrazolium (MTS) by cells to a formazan product that is soluble in cell culture medium, can be detected spectrophotometrically and was performed according to previously established methods (Mukohara, T. et al. J Natl Cancer Inst 97, 1185-94 (2005); Paez, J. G. et al. Science 304, 1497 500 (2004); Engelman, J. A. et al. J Clin Invest 116, 2695-2706 (2006). NSCLC or Ba/F3 cells are exposed to treatment for 72 hours and the number of cells used per experiment determined empirically and has been previously established. […]

PC9 (EGFR Del 19) = experiment: as above; settings: 72 hours
From the text: as §4, §5

Chain of Ba/F3 cells EGFR L858R/T790M (P00533 whole entry T790M/L858R): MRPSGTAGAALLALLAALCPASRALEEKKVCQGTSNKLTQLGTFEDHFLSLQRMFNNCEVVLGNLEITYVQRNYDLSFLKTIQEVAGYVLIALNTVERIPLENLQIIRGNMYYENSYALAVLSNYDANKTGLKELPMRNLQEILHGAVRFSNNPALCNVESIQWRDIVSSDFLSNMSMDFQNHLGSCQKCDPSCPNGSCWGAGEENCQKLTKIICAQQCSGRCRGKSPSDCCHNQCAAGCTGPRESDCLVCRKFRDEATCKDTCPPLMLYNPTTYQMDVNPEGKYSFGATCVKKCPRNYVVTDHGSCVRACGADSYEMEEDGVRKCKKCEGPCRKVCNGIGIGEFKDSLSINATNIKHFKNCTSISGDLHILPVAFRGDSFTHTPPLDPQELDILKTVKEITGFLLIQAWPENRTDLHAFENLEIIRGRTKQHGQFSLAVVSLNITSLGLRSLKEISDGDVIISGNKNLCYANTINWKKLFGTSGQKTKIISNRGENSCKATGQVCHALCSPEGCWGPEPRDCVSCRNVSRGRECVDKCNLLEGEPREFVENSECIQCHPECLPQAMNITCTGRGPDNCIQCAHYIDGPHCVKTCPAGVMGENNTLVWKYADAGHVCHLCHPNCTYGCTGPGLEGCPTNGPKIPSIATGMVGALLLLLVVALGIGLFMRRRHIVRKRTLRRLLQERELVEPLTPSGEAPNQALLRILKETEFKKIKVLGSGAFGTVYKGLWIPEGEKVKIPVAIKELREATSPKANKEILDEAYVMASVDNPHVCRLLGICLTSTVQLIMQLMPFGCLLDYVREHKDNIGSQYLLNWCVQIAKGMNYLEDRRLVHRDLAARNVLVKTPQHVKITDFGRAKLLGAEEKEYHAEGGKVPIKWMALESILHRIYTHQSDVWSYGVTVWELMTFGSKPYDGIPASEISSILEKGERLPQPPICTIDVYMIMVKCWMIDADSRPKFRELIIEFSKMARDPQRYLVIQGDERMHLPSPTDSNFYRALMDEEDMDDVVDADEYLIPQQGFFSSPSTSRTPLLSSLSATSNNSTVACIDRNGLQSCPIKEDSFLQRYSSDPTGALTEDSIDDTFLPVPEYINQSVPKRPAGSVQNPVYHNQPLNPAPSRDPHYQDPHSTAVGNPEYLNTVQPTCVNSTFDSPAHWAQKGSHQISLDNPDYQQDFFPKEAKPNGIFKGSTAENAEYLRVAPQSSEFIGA
Chain of Ba/F3 cells EGFR Del 19/T790M (P00533 with tags, fused parts or gaps DEL746-750/T790M): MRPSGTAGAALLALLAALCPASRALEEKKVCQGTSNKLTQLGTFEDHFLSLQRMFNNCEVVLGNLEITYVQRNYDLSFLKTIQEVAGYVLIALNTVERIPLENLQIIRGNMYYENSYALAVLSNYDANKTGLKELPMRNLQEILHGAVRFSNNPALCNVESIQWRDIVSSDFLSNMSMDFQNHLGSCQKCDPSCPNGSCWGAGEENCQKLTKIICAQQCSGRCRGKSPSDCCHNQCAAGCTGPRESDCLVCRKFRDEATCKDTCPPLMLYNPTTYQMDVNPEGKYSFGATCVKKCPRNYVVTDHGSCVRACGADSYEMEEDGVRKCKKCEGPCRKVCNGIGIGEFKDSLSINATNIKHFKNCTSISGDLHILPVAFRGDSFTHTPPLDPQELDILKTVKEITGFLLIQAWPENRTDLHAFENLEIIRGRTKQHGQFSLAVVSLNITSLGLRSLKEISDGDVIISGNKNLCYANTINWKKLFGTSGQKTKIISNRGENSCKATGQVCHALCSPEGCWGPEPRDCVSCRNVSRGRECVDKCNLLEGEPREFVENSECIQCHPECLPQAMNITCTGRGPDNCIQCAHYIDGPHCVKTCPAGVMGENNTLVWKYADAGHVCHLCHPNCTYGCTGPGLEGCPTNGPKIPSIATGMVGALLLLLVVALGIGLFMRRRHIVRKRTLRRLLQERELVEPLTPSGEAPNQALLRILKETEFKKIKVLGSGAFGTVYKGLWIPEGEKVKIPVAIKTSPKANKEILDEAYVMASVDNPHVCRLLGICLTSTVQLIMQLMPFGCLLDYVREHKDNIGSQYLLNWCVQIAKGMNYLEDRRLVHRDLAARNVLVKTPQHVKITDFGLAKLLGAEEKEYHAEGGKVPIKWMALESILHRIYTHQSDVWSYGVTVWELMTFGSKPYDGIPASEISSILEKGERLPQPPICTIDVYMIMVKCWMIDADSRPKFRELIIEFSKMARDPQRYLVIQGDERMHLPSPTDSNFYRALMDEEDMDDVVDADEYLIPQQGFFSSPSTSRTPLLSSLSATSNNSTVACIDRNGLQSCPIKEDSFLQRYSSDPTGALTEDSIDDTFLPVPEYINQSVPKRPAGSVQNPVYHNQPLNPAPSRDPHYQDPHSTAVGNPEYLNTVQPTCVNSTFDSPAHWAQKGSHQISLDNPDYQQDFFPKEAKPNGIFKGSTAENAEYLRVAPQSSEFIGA
Chain of Ba/F3 cells EGFR vIII (P00533 with tags, fused parts or gaps DELINS30-297G): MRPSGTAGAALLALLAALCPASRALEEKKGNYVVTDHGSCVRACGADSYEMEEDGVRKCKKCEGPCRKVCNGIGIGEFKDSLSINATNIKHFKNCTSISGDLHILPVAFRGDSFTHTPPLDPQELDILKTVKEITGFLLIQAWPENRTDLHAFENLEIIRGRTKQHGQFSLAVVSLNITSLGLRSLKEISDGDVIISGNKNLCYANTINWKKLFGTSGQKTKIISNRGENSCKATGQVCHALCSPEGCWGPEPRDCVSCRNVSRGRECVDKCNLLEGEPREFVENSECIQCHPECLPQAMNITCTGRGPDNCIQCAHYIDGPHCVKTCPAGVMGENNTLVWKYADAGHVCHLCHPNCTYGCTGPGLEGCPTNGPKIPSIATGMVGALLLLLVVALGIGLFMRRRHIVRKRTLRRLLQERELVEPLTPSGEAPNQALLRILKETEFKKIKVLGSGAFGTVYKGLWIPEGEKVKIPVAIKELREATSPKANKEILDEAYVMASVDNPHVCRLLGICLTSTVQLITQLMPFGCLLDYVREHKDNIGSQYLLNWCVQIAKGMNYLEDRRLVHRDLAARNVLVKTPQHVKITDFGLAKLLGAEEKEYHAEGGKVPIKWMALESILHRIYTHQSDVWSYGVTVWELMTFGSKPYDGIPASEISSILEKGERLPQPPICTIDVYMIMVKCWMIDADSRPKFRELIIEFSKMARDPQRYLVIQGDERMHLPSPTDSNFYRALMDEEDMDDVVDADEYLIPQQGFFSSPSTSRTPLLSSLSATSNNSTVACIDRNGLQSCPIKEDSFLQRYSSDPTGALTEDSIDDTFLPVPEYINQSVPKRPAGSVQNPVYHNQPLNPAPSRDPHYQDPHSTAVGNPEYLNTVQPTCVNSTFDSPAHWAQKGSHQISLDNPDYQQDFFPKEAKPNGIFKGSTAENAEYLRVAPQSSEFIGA

SMILES	GI50 [1] [nM]	GI50 (Ba/F3 cells EGFR vIII) [nM]	GI50 [2] [nM]	IC50 (A549 (KRAS G12)) [nM]	IC50 [3] [nM]	IC50 (PC9 (EGFR Del 19)) [nM]
C=CC(=O)Nc1cccc(Nc2ncc(Cl)c(Nc3ccccc3C(=O)NC)n2)c1 [Compound XIII-1, 2-((2-((3-acrylamidophenyl)amino)-5-chloropyrimidin-4-yl)amino)-N-methylbenzamide]	3	3	6	814	–	–
C=CC(=O)Nc1ccc(OC)c(Nc2ncc(Cl)c(Nc3ccccc3C(=O)NC)n2)c1 [Compound XIII-2, 2-((2-((5-acrylamido-2-methoxyphenyl)amino)-5-chloropyrimidin-4-yl)amino)-N-methylbenzamide]	56	570	65	> 3300	104	118

Second part, the molecule after the results:

GI50 [1] [nM]	GI50 (Ba/F3 cells EGFR vIII) [nM]	GI50 [2] [nM]	IC50 (A549 (KRAS G12)) [nM]	IC50 [3] [nM]	IC50 (PC9 (EGFR Del 19)) [nM]	SMILES
7	–	17	–	–	–	C=CC(=O)Nc1cccc(Nc2ncc(Cl)c(Nc3ccccc3S(=O)(=O)C(C)C)n2)c1 [Compound XIII-4, N-(3-((5-chloro-4-((2-(isopropylsulfonyl)phenyl)amino)pyrimidin-2-yl)amino)phenyl)acrylamide]
11	–	9	–	–	–	C=CC(=O)Nc1cccc(Nc2ncc(Cl)c(Nc3ccccc3S(=O)(=O)NC)n2)c1 [Compound XIII-5, N-(3-((5-chloro-4-((2-(N-methylsulfamoyl)phenyl)amino)pyrimidin-2-yl)amino)phenyl)acrylamide]
670	–	721	–	–	–	C=CC(=O)Nc1cccc(CNc2ncc(Cl)c(Nc3ccccc3S(=O)(=O)C(C)C)n2)c1 [Compound XIII-3, N-(3-(((5-chloro-4-((2-(isopropylsulfonyl)phenyl)amino)pyrimidin-2-yl)amino)methyl)phenyl)acrylamide]
